The text below walks through data of ChEMBL document CHEMBL1201862, “PubChem BioAssay data set” (2004).

Activity calls are given as the source filed them.

Experiment [1] is described as follows: Luminescence Cell-Based Dose Response HTS to Identify Inhibitors of 5'UTR Stem-Loop Driven Prion Protein mRNA Translation in H4 Neuroglioblastoma Cells. [Related pubchem assays: 1827 (Project Summary), 1813 (Primary HTS)]. The format is functional.
The target of experiment [2] is T1, Nuclear receptor subfamily 0 group B member 1 (Homo sapiens, UniProt P51843).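 Also: HEK293T cells transfected with SF-1 and DAX-1 plus StAR promoter luciferase reporter.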
T1 sequence (P51843 whole entry): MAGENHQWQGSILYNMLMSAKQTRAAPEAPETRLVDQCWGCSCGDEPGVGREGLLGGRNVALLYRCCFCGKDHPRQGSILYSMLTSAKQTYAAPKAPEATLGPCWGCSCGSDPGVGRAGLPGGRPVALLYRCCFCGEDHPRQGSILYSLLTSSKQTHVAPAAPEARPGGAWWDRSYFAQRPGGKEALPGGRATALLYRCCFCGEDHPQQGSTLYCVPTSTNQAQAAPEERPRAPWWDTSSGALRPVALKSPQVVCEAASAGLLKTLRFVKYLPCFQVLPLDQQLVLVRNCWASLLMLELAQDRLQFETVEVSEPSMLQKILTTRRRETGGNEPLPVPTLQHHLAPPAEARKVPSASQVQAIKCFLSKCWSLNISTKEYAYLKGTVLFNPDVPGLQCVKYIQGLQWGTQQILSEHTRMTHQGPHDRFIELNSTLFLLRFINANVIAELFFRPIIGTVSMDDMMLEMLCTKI
Type of experiment: functional, cell-based.

A short description of experiment [3]: cells. The format is functional, cell-based.
Experiment [4] is described as follows: MC4R antagonists, dose response, counter-screen for LGR2 antagonist project, cell-based, plate reader, cherry pick (AID 743444).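 Also: transfected HEK 293 cells stimulated with alpha-MSH peptide; potency of inhibitors of the alpha-MSH evoked signal.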 The format is functional. (In general: Counterscreens check selectivity or assay interference.)
A short description of experiment [5]: LGR2 antagonists, dose response, cell-based, HEK293, CRE-luciferase reporter, cherry pick, set 2 (AID 743343).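 Also: transfected cells were stimulated with diluted bursicon conditioned medium after compound addition.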 The format is functional. (A reporter such as luciferase makes a cellular process visible.)
A short description of experiment [6]: cells. The format is functional, cell-based. As to conditions: HEK-CNG.
The target of experiment [7] is Cytochrome P450 2D6 (Homo sapiens, UniProt P10635).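 Also: CYP2D6 member of a cytochrome P450 panel assay.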
Experiment [8] can be described thus: cytotoxicity in HEK-293T cells, dose response, cytotoxicity control for TCR NF-kB inhibitor project, luminescence, T-cell screen hits (AID 489026).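 Also: cells exposed to compound about 14 hours before the viability readout.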 The format is functional, cell-based.
Experiment [9] has as its target Galanin receptor type 3 (Homo sapiens, UniProt O60755). Description: Fluorescence-based cell-based primary high throughput dose response assay to identify antagonists of the Galanin Receptor 3 (GalR3). Type of experiment: functional.
Experiment [10] concerns the target Cytochrome P450 3A4 (Homo sapiens, UniProt P08684).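 Also: CYP3A4 tested as one member of a cytochrome P450 panel screen.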
In experiment [11] the test system is INS1. The experiment is described as follows: beta cell apoptosis inhibitors, cytokine rescue, dose response, luminescence, retest (AID 449756).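 Also: cell death triggered by IL-1 beta plus TNF-alpha plus IFN-gamma mixture; protective hits raise ATP signal compared with cytokine alone wells.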 The format is functional, cell-based. As to conditions: Rattus norvegicus.
Experiment [12] can be described thus: HepG2 cell cytotoxicity, dose response, cytotoxicity control for non-replicating M. tuberculosis project (AID 489018). The format is functional. As to conditions: Mycobacterium tuberculosis.
Experiment [13] is described as follows: Vero E6 cell cytotoxicity, dose response, cytotoxicity control for non-replicating M. tuberculosis project, secondary assay (AID 492998). Type of experiment: functional, VeroE6. As to conditions: Vero C1008.
The nature of experiment [14]: THP-1 cell cytotoxicity, dose response, cytotoxicity control for non-replicating M. tuberculosis project (AID 489025). Type of experiment: functional.
The nature of experiment [15]: cells. The format is functional.
A short description of experiment [16]: HepG2 cell cytotoxicity, dose response, cytotoxicity control, ATP luminescence, cherry-pick, activator set 2 (AID 1053143). The format is functional, cell-based.
The target of experiment [17] is Major prion protein (Homo sapiens, UniProt P04156). The format is functional, cell-based.
Experiment [18] in a line: cells.
The nature of experiment [19]: HepG2 cell cytotoxicity, dose response, cytotoxicity control, plate reader, cherry-pick, antagonist series (AID 743416). The format is functional, cell-based.
A short description of experiment [20]: HEK293 cell cytotoxicity, dose response, cytotoxicity control, plate reader, cherry-picked samples (AID 743446). The format is functional, cell-based.
A short description of experiment [21]: HepG2 cell cytotoxicity, dose response, cytotoxicity control for Shn3 inhibitor project, CellTiter-Glo, cherry-picked (AID 624134). The format is functional, cell-based. For orientation: Cellular ATP, detected with luciferase, serves as a proxy for viable cell number.
Experiment [22] can be described thus: Shn3 3'UTR reporter inhibitors, dose response, cell-based, Clone20 osteoblasts, firefly luciferase, cherry-picked (AID 624132).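 Also: firefly luciferase luminescence from reporter carrying the Shn3 3'UTR in osteoblasts.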 Type of experiment: functional.
The nature of experiment [23]: control 3'UTR Renilla luciferase suppression, dose response, counter-screen for Shn3 inhibitor project, cell-based, Clone20-Shn3RL, cherry-picked (AID 624133). The format is functional.
Experiment [24] deals with T2, Oxysterols receptor LXR-beta (Homo sapiens, UniProt P55055).
T2 sequence (P55055 whole entry): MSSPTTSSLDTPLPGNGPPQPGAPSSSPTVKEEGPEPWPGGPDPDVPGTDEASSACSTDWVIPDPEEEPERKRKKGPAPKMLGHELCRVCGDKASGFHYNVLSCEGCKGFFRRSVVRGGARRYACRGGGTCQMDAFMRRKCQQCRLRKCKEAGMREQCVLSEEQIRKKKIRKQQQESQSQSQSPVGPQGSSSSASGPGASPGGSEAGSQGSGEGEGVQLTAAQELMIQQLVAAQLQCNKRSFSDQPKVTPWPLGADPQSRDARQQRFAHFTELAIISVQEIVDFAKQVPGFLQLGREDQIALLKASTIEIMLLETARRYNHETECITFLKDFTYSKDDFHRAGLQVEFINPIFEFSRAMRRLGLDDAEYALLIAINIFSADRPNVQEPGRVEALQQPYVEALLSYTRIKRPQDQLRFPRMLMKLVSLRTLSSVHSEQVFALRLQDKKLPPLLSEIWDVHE
The format is functional, cell-based.

Experiment [25] addresses T3, Protein skinhead-1 (Caenorhabditis elegans, UniProt P34707).
T3 sequence (P34707 whole entry): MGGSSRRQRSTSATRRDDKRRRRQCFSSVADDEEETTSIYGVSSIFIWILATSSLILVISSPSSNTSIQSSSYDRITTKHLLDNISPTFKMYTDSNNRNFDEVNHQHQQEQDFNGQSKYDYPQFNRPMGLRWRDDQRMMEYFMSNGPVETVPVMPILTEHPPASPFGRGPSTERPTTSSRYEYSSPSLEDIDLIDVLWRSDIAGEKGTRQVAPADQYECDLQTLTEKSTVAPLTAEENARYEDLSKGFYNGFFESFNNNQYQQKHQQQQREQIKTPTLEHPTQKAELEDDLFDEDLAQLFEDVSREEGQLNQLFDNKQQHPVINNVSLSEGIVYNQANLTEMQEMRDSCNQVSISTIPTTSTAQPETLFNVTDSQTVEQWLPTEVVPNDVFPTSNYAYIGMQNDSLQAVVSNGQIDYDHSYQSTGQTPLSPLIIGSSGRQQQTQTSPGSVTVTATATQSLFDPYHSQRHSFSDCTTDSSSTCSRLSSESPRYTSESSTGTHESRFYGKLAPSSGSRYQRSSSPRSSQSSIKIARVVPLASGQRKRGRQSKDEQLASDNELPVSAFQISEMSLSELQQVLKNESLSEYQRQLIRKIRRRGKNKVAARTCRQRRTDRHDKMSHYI
Type of experiment: functional.

The target in experiment [26] is fMet-Leu-Phe receptor (Homo sapiens, UniProt P21462). Description: FPR ligands, dose response (AID 519). Type of experiment: functional.
Experiment [27] can be described thus: miR-122 activators in hepatoma reporter cells, dose response, cell-based, Huh7 psiCHECK-miR122, Renilla luciferase, cherry-picked (AID 651956).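 Also: huh7 hepatoma cells stably carrying a psiCHECK-2 miR-122 sensor plasmid; renilla luciferase signal reporting endogenous miR-122 activity after 48 h compound exposure.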 Type of experiment: functional.
Experiment [28] is described as follows: HEK293T cytotoxicity, dose response, cytotoxicity control for miR-122 modulator project, cell-based, inhibitor set, cherry-pick, set 2 (AID 720697). The format is functional.
Experiment [29] can be described thus: non-specific cell cytotoxicity, dose response, cytotoxicity control for PAX8 inhibitor project, plate reader, dry powder samples (AID 743021). The format is functional, cell-based.
For experiment [30], the target named is Paired box protein Pax-8 (Homo sapiens, UniProt Q06710). The experiment is described as follows: inhibitors of PAX8-driven TPO luciferase reporter, dose response, RMG-I cells, cherry-pick (AID 687027).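 Also: luciferase reporter driven by Pax8 target thyroperoxidase promoter measured by SteadyGlo luminescence.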 The format is functional, cell-based.
Experiment [31] can be described thus: cells. The format is functional, cell-based. This is another data set of the same source.
The nature of experiment [32]: HeLa 2N DNA content increase, dose response, cell-based, IC50 (AID 1117349). Type of experiment: functional.
Experiment [33] in a line: inhibitors of firefly luciferase expression or activity, dose response, H4 neuroglioma cells, luminescence (AID 1990). Type of experiment: functional, cell-based.
The nature of experiment [34]: luciferase reporter signal reduction – luminescence, H4-C neuroglioblastoma cells, dose response (AID 2458).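 Also: H4 neuroglioblastoma cells stably carrying a luciferase reporter gene fusion.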 The format is functional, cell-based.
Experiment [35] can be described thus: inhibitors of SNCA 5'UTR-driven translation, confirmation, luminescence, H4 neuroglioblastoma cells, dose confirmation (AID 2454).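 Also: H4 neuroglioblastoma cells carrying an alpha-synuclein 5'UTR luciferase reporter; potency for inhibition of the luciferase signal.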 The format is functional, cell-based.
The nature of experiment [36]: inhibitors of SNCA 5'UTR-driven reporter translation, confirmation, H4 neuroglioma cells, luminescence (AID 1988). The format is functional, cell-based.
Experiment [37] can be described thus: HeLa 4N DNA content increase, dose response, cell-based, IC50 (AID 1117351). Type of experiment: functional.

A word on the EC50: it is the midpoint of the concentration-response curve. A word on the IC50: it is the concentration that gives 50% inhibition. As usually defined, the AC50 is the concentration at which the activity in the assay is half-maximal. On to `O=C(c1cc(-c2ccc(Cl)cc2Cl)on1)N1CCOCC1`, for which the concentration giving a half-maximal response (EC50) in experiment [1] was > 120 µM (not active). Also, the IC50 in experiment [2] and in experiment [3] was > 67.5 µM (inactive) each time. Also, the results for the AC50 in experiment [4] and in experiment [5] were 7.28 µM (active) and 7.17 µM (active), respectively.

For the molecule `CCc1c(C)nc2ncnn2c1NCCc1ccc(OC)cc1`, the EC50 in [6] is > 29.9 µM (inactive). Further, the AC50 is 12.6 µM (inconclusive) in [7], 25.1 µM (inconclusive) in experiment [10] and 5.39 µM (active) in experiment [11]. The IC50 in [8] is > 80 µM (inactive); in [9], 3.2 µM (active).

The term CC50 denotes the concentration at which the toxic effect on the cells reaches its halfway point. In the case of `Cc1cc(NCc2ccccn2)n2ncc(-c3ccccc3)c2n1`, the CC50 is 4.11 µM (active) in experiment [12], 11.8 µM (active) in [13] and 6.66 µM (active) in [14]. For the same molecule, the IC50 in experiment [15] was 1.4 µM (active). Also, the AC50 in experiment [16] was 26 µM (active).

Regarding `N=C(N)NS(=O)(=O)c1ccc(NC(=S)NC(=O)c2sc3ccccc3c2Cl)cc1`, the IC50 is 5.54 µM (active) in experiment [17] and > 138 µM (inactive) in [18].

As for `c1ccc(-n2nnnc2Sc2ncnc3sc4c(c23)CCCC4)cc1`, the AC50 is > 52 µM (inactive) in [19], 5.73 µM (active) in experiment [4], 5.02 µM (active) in [5] and 42.3 µM (active) in experiment [20].

Turning to `Cn1nc(C(C)(C)C)cc1C(=O)NCc1ccc2c(c1)OCO2`, the half-maximal activity concentration (AC50) was 2.31 µM (active) in experiment [21], 1.17 µM (active) in [22], 3.31 µM (active) in experiment [11] and 1.02 µM (active) in experiment [23]. For the same molecule, the EC50 in experiment [6] was > 29.9 µM (inactive). Further, the half-maximal inhibitory concentration (IC50) in experiment [9] was 1.83 µM (active).

On to `CCc1cc2c(=O)c(-c3ccc4c(c3)OCO4)coc2c(CN(C)C)c1O`, for which the IC50 was 2.07 µM (active) in [17] and > 138 µM (inactive) in [18].

As to `S=C(c1ccc(-c2ccc(Cl)cc2)o1)N1CCCCC1`, the EC50 in experiment [24] is > 67.5 µM (inactive).

Turning to `Clc1ccc(Nc2ccc3ccccc3n2)cc1`, the IC50 in experiment [25] is > 100 µM (inactive). Also, the EC50 in experiment [24] was > 67.5 µM (inactive).

For orientation: Ki means the equilibrium dissociation constant of an inhibitor or competing ligand from its target. `CCOc1ccc(C2C(C(=O)c3cccs3)=C(O)C(=O)N2CCCn2ccnc2)cc1` (centres undefined): the Ki in experiment [26] is 57.1 µM (inactive).

In the case of `COc1ccccc1CNc1nc(NCC2CC2)nc2ccsc12`, the half-maximal activity concentration (AC50) in [21] is 39.9 µM (active); in experiment [22] it was 4.16 µM (active); in [27] it was 29.6 µM (active); in [28], 6.06 µM (active); in experiment [23], 6.69 µM (active).

For the molecule `CC(C)C#Cc1ccc2c(c1)O[C@H](CN(C)C(=O)c1ccncc1)[C@@H](C)CN([C@@H](C)CO)S2(=O)=O`, the AC50 is 11.6 µM (active) in experiment [27] and 0.461 µM (active) in experiment [28].

For the molecule `Cc1ccc(S(=O)(=O)N(C)C[C@H]2Oc3ccc(NS(=O)(=O)c4ccc(F)cc4)cc3CC(=O)N([C@H](C)CO)C[C@H]2C)cc1`, the AC50 in [29] is 52.8 µM (active); in experiment [30] it was 21.5 µM (active).

Take `COc1cc([C@@H]2c3cc4c(cc3[C@H](O)[C@H]3COC(=O)[C@H]23)OCO4)cc(OC)c1OC` [PODOFILOX]: the IC50 in experiment [2] was 2.15 µM (active); in [3], > 67.5 µM (inactive); in experiment [32], 0.0089 µM (active); in experiment [8] it was > 80 µM (inactive); in experiment [37] it was 0.0077 µM (active). Further, the EC50 in experiment [31] was 0.014 µM (active); in experiment [33], < 0.1 µM (active); in experiment [34], 0.015 µM (active); in [35], 0.008 µM (active); in experiment [36], < 0.1 µM (active). Moreover, the AC50 in experiment [30] is < 0.26 µM (active).
